Measured values as given in US12600732B2, “Bifunctional compounds for degrading BTK via ubiquitin proteosome pathway” (NURIX THERAPEUTICS, INC., priority 2019, dated 2026).
Where two headings read alike, the source gives them in different places.

Columns and labels:
[1] = test system: B cell receptor (BCR) signaling; assay: B cell activation assay (flow cytometry), human B cells; assay type: cell-based; settings: treatment 4 h, IgM stimulation 18 h
Description: Compound was present throughout the stimulation. Cells were stained with Live/Dead dye (Fisher L34976) and then fluorophore-conjugated antibodies against CD20 (Biolegend 302330), CD3 (BD Pharmingen 557705), CD86 (Biolegend 305416) and CD69 (Biolegend 310906). Stained cells were fixed in PFA and run on an Attune N×T Acoustic Focusing Flow Cytometer (Thermo-Fisher A29004), and data was analyzed using FlowJo (v10.5.3) and GraphPad Prism (v7.00) software. Single live lymphocytes were gated for B cells (CD20+CD3−) and T cells (CD3+CD20−), and the geometric mean fluorescence intensity (MFI) of CD86 and CD69 was calculated for each population. The MFI of the unstimulated sample was used to quantify baseline activation.
This example evaluates whether CTM treatment affects B cell receptor (BCR) signaling. BTK is activated downstream of the B cell receptor and leads to upregulation of activation markers CD86 and CD69 on the surface of B cells.

[2] = test system: primary human T cells; assay: T cell activation assay, CD25 and CD69 staining (flow cytometry); assay type: cell-based; settings: fold-change of response relative to baseline
In short: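 Primary human T cells stimulated via TCR with anti-CD3/anti-CD28 in the presence of test compound. IL-2 secretion measured by ELISA; surface CD25 and CD69 by flow cytometry. Values are fold-change versus anti-CD3/anti-CD28 stimulation without compound.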

[3] = test system: Rec-1 cells; assay: Cell viability assay (CellTiter-Glo), Rec-1 cells; assay type: cell-based
Text: This example evaluates effects of CTM-mediated degradation on cell viability. […] Mino and Rec-1 are models of Mantle Cell Lymphoma, which is sensitive to IMiDs.

[4] = test system: Aiolos; assay: Non-human primate (cyno) DRF PD, Aiolos remaining in T cells; assay type: in vivo; settings: blood, 24 h after previous dose
Description: This example evaluates potency and tolerability of BTK CTMs following multiple, consecutive days of dosing and examines potency of compounds for BTK and Aiolos degradation. The data in the table below is from a study in which animals were dosed daily with the designated oral dose. Analysis for BTK and Aiolos levels was performed twenty-four hours following the previous dose.

[5] = test system: BTK; assay: PD data from cyno (BTK degradation); assay type: in vivo; settings: blood
Text: In this example, compounds were profiled for activity in non-mouse species.

[6] = PK data for BTK CTMs (in vivo plasma concentrations); settings: for Vd: read-out: Volume of Distribution
Text: The present example evaluates in vivo plasma concentrations of BTK CTMs to develop PK-PD-efficacy relationship and predict human exposure.

[7] = Compound plasma exposure in mouse (CD-1), daily oral dosing, same table as the cyno DRF study; assay type: in vivo; settings: CD-1, mouse
[8] = Compound plasma exposure in cyno DRF study; assay type: in vivo; settings: cynomolgus monkey, po
[9] = target: BTK (Homo sapiens, UniProt Q06187); assay: BTK degradation in human PBMCs (BTK flow cytometry), primary human B cells; assay type: cell-based; design: endogenous in cells; host or cells: human PBMC (B cells) from healthy donors; settings: treatment time 4 h
Description: Human peripheral blood mononuclear cells (PBMC) were obtained either: 1) by using Ficoll-Paque™ (GE Healthcare) for separation of peripheral blood hematopoietic cells from buffy coats of healthy human donors; or 2) directly from LeukoPak donations. PBMCs were grown at 37° C. and 5% CO2 in RPMI supplemented with 10% heat-inactivated FBS (Corning Premium Fetal Bovine Serum from Fisher, MT35015CV), 1× Penicillin/Streptomycin, and 2 mM Glutamine.
BTK Degradation in Human PBMCs (BTK Flow Cytometry)
This example evaluates the potency of CTMs in primary human B cells, rather than transformed or immortalized cancer cell lines. Primary cells are believed to be a physiologically relevant model. Thus, this example confirms the potency, kinetics, and level of BTK degradation in these cells in addition to the cell line models. Furthermore, this assay establishes that it is possible to monitor BTK degradation in primary human B cells, which can serve as a clinical biomarker.

[10] = Monkey cynomolgus, 0.75 mg/kg IV
[11] = Rat Sprague-Dawley, 10 mg/kg PO
[12] = Rat Sprague-Dawley, 30 mg/kg PO
[13] = 30 mg/kg, 30 mg/kg PO, 1 day of dosing
[14] = 30 mg/kg, 30 mg/kg PO, 14 days of dosing
[15] = 100 mg/kg, 100 mg/kg PO, 1 day of dosing
[16] = 100 mg/kg, 100 mg/kg PO, 14 days of dosing
[17] = 300 mg/kg, 300 mg/kg PO, 1 day of dosing
[18] = 300 mg/kg, 300 mg/kg PO, 14 days of dosing

Sequence of BTK (Homo sapiens, UniProt Q06187) (Q06187 whole entry): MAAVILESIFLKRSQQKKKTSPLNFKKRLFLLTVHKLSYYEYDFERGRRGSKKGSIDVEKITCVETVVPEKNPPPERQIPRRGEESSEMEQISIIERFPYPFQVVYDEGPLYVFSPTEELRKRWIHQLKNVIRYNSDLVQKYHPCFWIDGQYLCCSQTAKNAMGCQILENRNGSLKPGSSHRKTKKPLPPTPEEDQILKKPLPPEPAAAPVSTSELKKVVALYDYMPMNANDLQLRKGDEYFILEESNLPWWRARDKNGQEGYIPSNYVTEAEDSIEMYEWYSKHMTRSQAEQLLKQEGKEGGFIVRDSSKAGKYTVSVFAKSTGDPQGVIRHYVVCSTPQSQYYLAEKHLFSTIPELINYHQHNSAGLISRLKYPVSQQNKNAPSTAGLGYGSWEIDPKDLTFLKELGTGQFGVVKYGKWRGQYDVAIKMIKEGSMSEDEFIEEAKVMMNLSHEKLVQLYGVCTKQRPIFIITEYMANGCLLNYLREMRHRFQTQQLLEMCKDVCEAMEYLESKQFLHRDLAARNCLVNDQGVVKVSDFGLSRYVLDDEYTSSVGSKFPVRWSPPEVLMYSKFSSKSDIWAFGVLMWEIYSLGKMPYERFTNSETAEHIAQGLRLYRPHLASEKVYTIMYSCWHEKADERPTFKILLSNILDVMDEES

CN1CCN([C@H]2CCCN(c3cnc(C(N)=O)c(Nc4ccc(C5CCN(CC6CCN(c7ccc(C(=O)NC8CCC(=O)NC8=O)nc7)CC6)CC5)cc4)n3)C2)C1=O (stereo partly drawn) [Compound 130]
EC50 ([1]; read-out: CD69 EC50): 0.4 nM
EC50 ([1]; read-out: CD86 EC50): 0.5 nM
CD25 Staining Anti-CD3/Anti-CD28 Stimulation ([2]; 1.4 nM): 1.02
CD69 Staining Anti-CD3/Anti-CD28 Stimulation ([2]; 1.4 nM): 1.00
CD25 Staining Anti-CD3/Anti-CD28 Stimulation ([2]; 37 nM): 0.98
CD69 Staining Anti-CD3/Anti-CD28 Stimulation ([2]; 37 nM): 0.96
CD25 Staining Anti-CD3/Anti-CD28 Stimulation ([2]; 333 nM): 0.55
CD69 Staining Anti-CD3/Anti-CD28 Stimulation ([2]; 333 nM): 0.55
EC50 ([3]; Homo sapiens, Rec1, treatment time 72 h): 155 nM
EMAX (% viable cells) ([3]; treatment time 72 h): 63%
% Aiolos Remaining in T cells ([4]; 10 mg/kg PO daily, 1 day of dosing): 102%
% Aiolos Remaining in T cells ([4]; 10 mg/kg PO daily, 14 days of dosing): 96%
% Aiolos Remaining in T cells ([4]; 30 mg/kg PO daily, 1 day of dosing): 98%
% Aiolos Remaining in T cells ([4]; 30 mg/kg PO daily, 14 days of dosing): 108%
% Aiolos Remaining in T cells ([4]; 100 mg/kg PO daily, 1 day of dosing): 106%
% Aiolos Remaining in T cells ([4]; 100 mg/kg PO daily, 14 days of dosing): 99%
% BTK Remaining ([5]; 1 mg/kg IV, 2 h): 8%
% BTK Remaining ([5]; 1 mg/kg IV, 4 h): 6%
% BTK Remaining ([5]; 1 mg/kg IV, 8 h): 5%
% BTK Remaining ([5]; 1 mg/kg IV, 24 h): 13%
% BTK Remaining ([5]; 10 mg/kg PO, 2 h): 4%
% BTK Remaining ([5]; 10 mg/kg PO, 4 h): <1%
% BTK Remaining ([5]; 10 mg/kg PO, 8 h): <3%
% BTK Remaining ([5]; 10 mg/kg PO, 24 h): <1%
% BTK Remaining ([5]; 30 mg/kg PO, 2 h): 6%
% BTK Remaining ([5]; 30 mg/kg PO, 4 h): <1%
% BTK Remaining ([5]; 30 mg/kg PO, 8 h): <1%
% BTK Remaining ([5]; 30 mg/kg PO, 24 h): 1%
AUC ([6]; Dog Beagle, 1 mg/kg IV): 0.16 µM·h
clearance ([6]; Dog Beagle, 1 mg/kg IV): 118 mL/min/kg
Vd ([6]; Dog Beagle, 1 mg/kg IV): 56 L/kg
AUC ([6]; Dog Beagle, 10 mg/kg PO): 0.17 µM·h
bioavailability ([6]; Dog Beagle, 10 mg/kg PO): 10%
AUC ([6]; Dog Beagle, 30 mg/kg PO): 0.23 µM·h
AUC [6, 10]: 0.17 µM·h
clearance [6, 10]: 90.9 mL/min/kg
Vd [6, 10]: 16 L/kg
AUC ([6]; Monkey cynomolgus, 10 mg/kg PO): 0.028 µM·h
bioavailability ([6]; Monkey cynomolgus, 10 mg/kg PO): 1%
AUC ([6]; Monkey cynomolgus, 30 mg/kg PO): 0.45 µM·h
AUC ([6]; Mouse Balb/c, 1 mg/kg IV): 3.4 µM·h
clearance ([6]; Mouse Balb/c, 1 mg/kg IV): 6 mL/min/kg
Vd ([6]; Mouse Balb/c, 1 mg/kg IV): 0.72 L/kg
AUC ([6]; Mouse Balb/c, 10 mg/kg PO): 5.81 µM·h
bioavailability ([6]; Mouse Balb/c, 10 mg/kg PO): 17%
AUC ([6]; Mouse Balb/c, 30 mg/kg PO): 2.3 µM·h
AUC ([6]; Mouse CD-1, 1 mg/kg IV): 1.7 µM·h
clearance ([6]; Mouse CD-1, 1 mg/kg IV): 11.6 mL/min/kg
Vd ([6]; Mouse CD-1, 1 mg/kg IV): 1.4 L/kg
AUC ([6]; Mouse CD-1, 10 mg/kg PO): 5.2 µM·h
bioavailability ([6]; Mouse CD-1, 10 mg/kg PO): 33%
AUC ([6]; Rat Sprague-Dawley, 1 mg/kg IV): 0.18 µM·h
clearance ([6]; Rat Sprague-Dawley, 1 mg/kg IV): 99.5 mL/min/kg
Vd ([6]; Rat Sprague-Dawley, 1 mg/kg IV): 32 L/kg
AUC [6, 11]: 0.69 µM·h
bioavailability [6, 11]: 32%
AUC [6, 12]: 1.62 µM·h
bioavailability [6, 12]: 7%
AUC [7, 13]: 23.2 µM·h
Cmax [7, 13]: 2.2 µM
AUC [7, 14]: 21.1 µM·h
Cmax [7, 14]: 1.7 µM
AUC [7, 15]: 51.3 µM·h
Cmax [7, 15]: 3.8 µM
AUC [7, 16]: 49.8 µM·h
Cmax [7, 16]: 3.4 µM
AUC [7, 17]: 67 µM·h
Cmax [7, 17]: 5.1 µM
AUC [7, 18]: 72.2 µM·h
Cmax [7, 18]: 5.2 µM
AUC ([8]; 10 mg/kg, 10 mg/kg PO, 1 day of dosing): 0.172 µM·h
AUC [8, 13]: 0.582 µM·h
Cmax [8, 15]: 0.096 µM
AUC [8, 16]: 3.84 µM·h
DC50 [9]: 0.13 nM
